Measurements as given in patent US20120053119A1, “THERAPEUTIC METHOD FOR INCREASING PANCREATIC BETA CELL MASS” (priority 2009, published 2012).

Experiments:
Format in all cases: cell-based
human islets = test: SDF-1 mRNA by QRT-PCR in human islets ex vivo; conditions: 4 hours; SDF-1 10 nM or 50 nM; two cytokine mixtures
Method: FIG. 29. […] 50 human islets were treated with control, cytokine mixture or SDF-1 for 4 hr, mRNA was then extracted and QRT-PCR was performed. Cytokines 1: 2 ng/ml IL-1beta, 10 ng/ml TNF-alpha, 10 ng/ml IFN-gamma. Cytokines 2: 10 ng/ml IL-1beta, 50 ng/ml TNF-alpha, 50 ng/ml IFN-gamma.
Groups of 50 human islet cells were treated with one of vehicle control, two different cytokine mixtures (Cytokines 1: 2 ng/ml IL-1beta, 10 ng/ml TNF-alpha, 10 ng/ml IFN-gamma; Cytokines 2: 10 ng/ml IL-1beta, 50 ng/ml TNF-alpha, 50 ng/ml IFN-gamma), or SDF-1 at one of two different concentrations (10 nM or 50 nM) for 4 hours. SDF-1 mRNA was then extracted and QRT-PCR was performed.

Wnt signaling = Wnt signaling luciferase reporter assay (TOPflash/FOPflash) in INS-1 cells; conditions: dose response
Method: Wnt signaling is indicated by the value of TOPflash luciferase activity divided by FOPflash activity. A. Time course of the TOPflash:FOPflash ratio of INS-1 cell treated with 1 nM SDF-1. B. Ratio of TOPflash to FOPflash activity in INS-1 cells treated with increasing doses of SDF-1. C. […] All values are relative to the value of the untreated INS-1 cells. Data are normalized for transfection efficiency by co-transfected beta-galactosidase and represent means±S.D. of three experiments.
All values are relative to the first (leftmost) bar. Statistical significance is depicted as * (p<0.05) when compared with control values (leftmost bar). Data are normalized for transfection efficiency by co-transfected beta-galactosidase and represent means±S.D. of three experiments.
Wnt Signaling Luciferase Reporter Assay (TOPflash) INS-1 cells were plated into 24-well dishes 24 hr before transfection with TOPflash or the mutant, control reporter, FOPflash (1 microg/well) using LipofectAMINE2000 (Invitrogen). Various concentrations of SDF-1 or AMD3100 were then added to the culture medium 24 h following transfection for the indicated period of time. In studies in which inhibitors were used, LY294002 (50 microM), PD98059 (10 microM) or SH-5 (10 nM) were added concomitantly with SDF-1. In studies in which wild-type (wt), dominant-negative (dn) or contitutively-active (ca) forms of kinase were used, dnTCF7L2, dnGSK3beta, caGSK3beta, dnAkt, or caAkt (0.5 microg/well) was cotransfected with TOPflash. Luciferase activity in transfected cells was determined with a luciferase assay kit (Promega).
We examined SDF-1 induction of Wnt signaling using a Wnt signaling reporter assay (TOPflash/FOPflash). The TOPflash and FOPflash constructs contain the luciferase reporter either under the control of consensus TCF7L2-binding sites or mutated TCF7L2-binding sites, respectively. Luciferase activity was measured during 4 hr after addition of 1 nM SDF-1 (FIG. 3A).

INS-1 cells [1] = test: MTT assay of cell growth; conditions: serum starved, SDF-1 10 nM, 48 hr
Method: (§1) FIG. 6. Inhibition of apoptosis by SDF-1 in INS-1 and MIN-6 cells is reversed by knock-down of betacatenin. A. Western blot analysis of extracts from MIN6 cells that were mock treated, thapsigargin-treated (1 μM) and/or siRNA transfected (0.25 mg/ml), by using anti-serum against cleaved caspase-3 (upper panel), anti-serum against cleaved PARP (middle panel) and actin antibody (lower panel) as a loading control. B. Caspase-3 activity (fluorescence/mg proteinx105) of INS-1 or MIN6 cells mock treated, thapsigargin-treated (1 μM) and/or siRNA transfected (0.25 mg/ml). Results are presented as mean±SD for n=3 independent experiments, All values are relative to the first (leftmost) bar. Statistical significance is depicted as * (p<0.05) when compared with control values (leftmost bar) and # (<0.05) when compared with […] thapsigargin treatment. C. Representative images are shown for TUNEL staining of INS-1 cells of n=3 independent experiments. Quantification of apoptotic cells is expressed as percent apoptotic cells relative to the total cells counted (lower left panel). D. The proliferation rates of INS-1 cells after SDF-1 or Exd4 treatment are presented as relative BrdU and MTT incorporation values compared to that of control treated cells. […]
MTT Assay Growth of INS-1 cells was determined by the MTT system. […]

INS-1 cells [2] = test: Cell proliferation assay, BrdU incorporation; conditions: SDF-1 10 nM overnight
Method: as §1, with “panel).” for “panel). D. The proliferation rates of INS-1 cells after SDF-1 or Exd4 treatment are presented as relative BrdU and MTT incorporation values compared to that of control treated cells.”
Cell Proliferation Assay Proliferation of INS-1 cells was determined by incorporation of BrdU into newly synthesized DNA of proliferating cells. […] BrdU staining was measured by the DELFIA cell proliferation kit (Perkin Elmer).

Akt = test: Phospho-Akt to Akt ratio by Western immunoblot in alphaTC-1 cells
Description: FIG. 18. Activation of CXCR4 by SDF-1 in alphaTC-1 cells induces phosphorylation of Akt. Shown is a semi-quantitative measurement of the ratio of phospho-Akt to Akt (lower) determined by Western immunoblots (upper).

INS-1 cells [3] = test: Real time RT-PCR of beta-catenin and cyclin D1 mRNA in INS-1 cells; conditions: SDF-1 4 hr, relative to vehicle-treated control
Method: FIG. 9. […] Data are normalized by using the housekeeping gene GADPH as an internal control and represent means±S.D. of three independent experiments. Statistical significance is depicted as (p<0.01) when compared with control values.
Gene expression profiling on focused microarrays INS-1 cells were untreated or treated with 10 nM SDF-1 for 4 hrs. Total RNA was isolated and Biotin-labeled complimentary RNAs were generated using the TrueLabeling-AMP Linear RNA Amplification Kit (SuperArray Bioscience Corp.) The Wnt-signaling pathway-focused microarray filters (118 probes) (SuperArray Bioscience Corp.) were hybridized with these biotin-labeled targets (5 microg/array at 60 C overnight. The filters were washed and subsequently incubated with alkaline phosphatase-conjugated streptavidin and CDPStar substrate. The Chemiluminescent images were captured using Kodak Digital Station 440 (Perkin Elmer). For quantification, the spot intensity was measured and normalized to the value of the housekeeping gene GAPDH. Fold-changes in gene expression levels were determined by comparisons of hybridization densities of SDF-1 treated versus untreated INS-1 cells. Real time RT-PCR was carried out by using the SYBR® Green QPCR kit (Stratagene). Briefly, INS-1 cells were treated with 10 nM SDF-1 or PBS vehicle control for 4 h. […]

## SDF-1: small, secreted 70 amino acid peptide chemokine, SEQ ID NO: 1, ligand of CXCR4
Human islets
  SDF-1 expression (mRNA) in human islets: induce SDF-1 expression
Wnt signaling
  SDF-1 concentration giving maximum Wnt signaling response (TOPflash/FOPflash): 0.4 nM
INS-1 cells [1]
  effect on proliferation of INS-1 cells, MTT assay: no detectable effects
INS-1 cells [2]
  effect on proliferation of INS-1 cells, BrdU incorporation: no detectable effects
Akt
  Akt activation (phosphorylation) in alpha cells: activates Akt
INS-1 cells [3]
  beta-catenin mRNA expression: 3 fold
  cyclin D1 mRNA expression: 2 fold
